Measured values reported in patent publication US20250129094A1, “NEW QUINOLINE DERIVATIVES” (ELANCO ANIMAL HEALTH GMBH, priority 2021, published 2025).
Like-named read-outs stand apart in the source and are kept apart here.

What was measured:
D. immitis Slo-1 = D. immitis Slo-1 (Dirofilaria immitis, UniProt I0DFK5); assay: D. immitis Slo-1 - action at a recombinant D. immitis cell line (membrane potential, FLIPR); type: cell-based
A. viteae = settings: jirds (Meriones unguiculatus), at ≤25.0 mg/kg per oral, treated once, necropsy 12 weeks after infection
From the text: Jirds (Meriones unguiculatus), experimentally infected with infective A. viteae larvae via subcutaneous injection were subsequently treated once with the formulated test compound by oral gavage or intraperitoneally. At necropsy 12 weeks after infection, efficacy was expressed as a % reduction in worm numbers in comparison with the placebo treated group, using the Abbot's formula.

[1] = system: H. contortus and/or T. colubriformis; assay: In vivo assay 3: gastro intestinal nematodes H. contortus and T. colubriformis in jirds; settings: jirds (Meriones unguiculatus), at ≤1.0 mg/kg intraperitoneal, treated once on Day 6 after infection
Method: In Vivo Assay 3: Gastro Intestinal Nematodes of H. contortus (Haemonchus contortus) and T. colubriformis (Trichostrongylus colubriformis)
Jirds (Meriones unguiculatus), immunosuppressed by administration of rodent feed containing hydrocortisone 21-acetate, were experimentally infected with third instar larvae each of T. colubriformis and H. contortus by oral gavage and were treated once orally or intraperitoneally with the formulated test compound on Day 6 after infection. Three days after treatment, jirds were euthanized and dissected to recover H. contortus from stomach and T. colubriformis from the small intestine. Efficacy is expressed as a % reduction in worm numbers in comparison with a placebo treated group, using the Abbot's formula.

D. immitis Slo-1, sequence (I0DFK5 1-1119): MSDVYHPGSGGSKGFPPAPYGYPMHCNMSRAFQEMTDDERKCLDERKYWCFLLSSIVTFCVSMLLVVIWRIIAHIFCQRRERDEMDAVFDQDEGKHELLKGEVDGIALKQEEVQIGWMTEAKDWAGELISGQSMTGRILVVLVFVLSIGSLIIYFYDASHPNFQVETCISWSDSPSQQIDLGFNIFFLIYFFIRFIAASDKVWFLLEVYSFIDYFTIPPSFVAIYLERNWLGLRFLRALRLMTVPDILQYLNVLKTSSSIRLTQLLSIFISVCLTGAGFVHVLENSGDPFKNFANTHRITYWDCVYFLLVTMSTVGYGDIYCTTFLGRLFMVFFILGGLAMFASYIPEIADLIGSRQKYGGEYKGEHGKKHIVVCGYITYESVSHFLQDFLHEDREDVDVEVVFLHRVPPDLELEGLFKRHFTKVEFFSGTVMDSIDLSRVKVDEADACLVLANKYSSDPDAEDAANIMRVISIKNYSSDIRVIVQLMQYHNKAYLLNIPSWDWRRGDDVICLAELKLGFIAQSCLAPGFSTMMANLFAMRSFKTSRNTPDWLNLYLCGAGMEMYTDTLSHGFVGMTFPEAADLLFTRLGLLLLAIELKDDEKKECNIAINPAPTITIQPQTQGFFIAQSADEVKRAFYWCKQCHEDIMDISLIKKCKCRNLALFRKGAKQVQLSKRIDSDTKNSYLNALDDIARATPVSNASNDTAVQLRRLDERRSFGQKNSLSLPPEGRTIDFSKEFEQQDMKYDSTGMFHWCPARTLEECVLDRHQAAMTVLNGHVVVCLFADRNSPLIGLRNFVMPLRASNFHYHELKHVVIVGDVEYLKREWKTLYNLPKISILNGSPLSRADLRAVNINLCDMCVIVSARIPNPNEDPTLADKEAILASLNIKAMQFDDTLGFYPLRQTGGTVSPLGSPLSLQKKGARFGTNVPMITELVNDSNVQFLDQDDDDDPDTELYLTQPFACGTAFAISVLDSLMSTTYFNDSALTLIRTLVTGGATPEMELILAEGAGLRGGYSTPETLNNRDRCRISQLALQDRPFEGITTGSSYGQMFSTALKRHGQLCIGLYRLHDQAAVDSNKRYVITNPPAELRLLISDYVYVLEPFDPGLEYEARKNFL

With `O=C(N[C@H]1CCOc2ccccc21)c1cnc2c(-c3cc(F)cc(F)c3F)c(F)ccc2c1C1C[S+]([O-])C1` (single isomer, unassigned) [Example 6] as the compound, how does the EC50 (D. immitis Slo-1; read-out: pE50, stable CHO cell line expressing D. immitis Slo-1, voltage sensitive dye, upper limit in μM) read?
Its EC50 is 0.1 to 1 µM.

`O=C(N[C@H]1CCOc2ccccc21)c1cnc2c(-c3cc(Cl)cc(Cl)c3)c(F)ccc2c1N1CCOC2CC21` (stereo partly drawn) [Example 13, 4-(2-oxa-5-azabicyclo[4.1.0]heptan-5-yl)-N—((S)-chroman-4-yl)-8-(3,5-dichlorophenyl)-7-fluoroquinoline-3-carboxamide] was tested. Which EC50 (D. immitis Slo-1) did it give?
Its EC50 is 0.001 to 0.01 µM.

Which EC50 (D. immitis Slo-1) does the source give for `O=C1CC(c2c(C(=O)N[C@H]3CCOc4ccccc43)cnc3c(-c4cc(F)cc(F)c4F)c(F)ccc23)C1` [Example 1, N-[(4S)-3,4-dihydro-2H-chromen-4-yl]-7-fluoro-4-(3-oxocyclobutyl)-8-(2,3,5-trifluorophenyl) quinoline-3-carboxamide] here?
Its EC50 is 0.001 to 0.01 µM.

And the “activity (% reduction in worm numbers)” value (A. viteae)?
Its value is 100%.

What about the “activity (% reduction in worm numbers)” value [1] of the same compound?
Its value is 100%.

With `N=S1(=O)CC(c2c(C(=O)N[C@H]3CCOc4ccccc43)cnc3c(-c4cc(F)cc(F)c4F)c(F)ccc23)C1` (stereo partly drawn) [Example 10, N-[(4S)-3,4-dihydro-2H-chromen-4-yl]-7-fluoro-4-(1-imino-1-oxido-1lambda^4-thietan-3-yl)-8-(2,3,5-trifluorophenyl) quinoline-3-carboxamide] as the compound, how does the EC50 (D. immitis Slo-1) read?
The EC50 was 0.001 to 0.01 µM.

And the “activity (% reduction in worm numbers)” value [1]?
The value was 100%.

With `O=C(N[C@H]1CCOc2ccccc21)c1cnc2c(-c3cc(F)cc(F)c3F)c(F)ccc2c1[C@H]1CCOC1` [Example 9, N-[(4S)-3,4-dihydro-2H-1-benzopyran-4-yl]-7-fluoro-4-(oxolan-(3R)-yl)-8-(2,3,5-trifluorophenyl) quinoline-3-carboxamide] as the compound, how does the EC50 (D. immitis Slo-1) read?
The EC50 was 0.001 to 0.01 µM.

And the “activity (% reduction in worm numbers)” value [1]?
The value was 100%.

Which results are given for `O=C(N[C@H]1CCOc2ccccc21)c1cnc2c(-c3cc(F)cc(F)c3F)c(F)ccc2c1[C@H]1C[C@H](F)C1` [Example 15, N—((S)-chroman-4-yl)-7-fluoro-4-((1R,3S)-3-fluorocyclobutyl)-8-(2,3,5-trifluorophenyl) quinoline-3-carboxamide]?
EC50 (D. immitis Slo-1): 0.001 to 0.01 µM; activity (% reduction in worm numbers) [1]: 100%

`O=C(N[C@H]1CCOc2ccccc21)c1cnc2c(-c3cc(F)cc(F)c3F)c(F)ccc2c1C1CCOC1` (stereo partly drawn) [Example 7, N-[(4S)-3,4-dihydro-2H-1-benzopyran-4-yl]-7-fluoro-4-(oxolanyl)-8-(2,3,5-trifluorophenyl) quinoline-3-carboxamide] was tested. Which EC50 (D. immitis Slo-1) did it give?
The EC50 was 0.001 to 0.01 µM.

With `O=C(N[C@H]1CCOc2ccccc21)c1cnc2c(-c3cc(F)cc(F)c3F)c(F)ccc2c1C1C[S+]([O-])C1` (single isomer, unassigned) [Example 5] as the compound, how does the “activity (% reduction in worm numbers)” value [1] read?
Its value is 100%.

`O=C(N[C@H]1CCOc2ccccc21)c1cnc2c(-c3cc(F)cc(F)c3F)c(F)ccc2c1[C@@H]1CCOC1` [Example 8, N-[(4S)-3,4-dihydro-2H-1-benzopyran-4-yl]-7-fluoro-4-(oxolan-(3S)-yl)-8-(2,3,5-trifluorophenyl) quinoline-3-carboxamide] was tested. Which EC50 (D. immitis Slo-1) did it give?
The EC50 was 0.001 to 0.01 µM.

What about the “activity (% reduction in worm numbers)” value [1] of the same compound?
The value was 100%.

With `O=C(N[C@H]1CCOc2ccccc21)c1cnc2c(-c3cc(F)cc(F)c3F)c(F)ccc2c1C1CS(=O)(=O)C1` [Example 3, N-[(4S)-3,4-dihydro-2H-chromen-4-yl]-4-(1,1-dioxidothietan-3-yl)-7-fluoro-8-(2,3,5-trifluorophenyl) quinoline-3-carboxamide] as the compound, how does the EC50 (D. immitis Slo-1) read?
Its EC50 is 0.01 to 0.1 µM.

With `O=C1CN(c2c(C(=O)N[C@H]3CCOc4ccccc43)cnc3c(-c4cc(F)cc(F)c4F)c(F)ccc23)CCN1` [Example 16, N—((S)-chroman-4-yl)-7-fluoro-4-(3-oxopiperazin-1-yl)-8-(2,3,5-trifluorophenyl) quinoline-3-carboxamide] as the compound, how does the “activity (% reduction in worm numbers)” value [1] read?
The value was 100%.
